Measurements: ChEMBL document CHEMBL1125295, “Synthesis and some pharmacological properties of potent and selective antagonists of the vasopressor (V1-receptor) response to arginine-vasopressin” (J Med Chem, 1992)
Values belong to the compound of their own block, whether it stands above or below them. *1 amine or outer side, *2 acyl side, *3 side chain or, on linkers, in order; H or OH if unused. Where a SMILES comes first, the peptide text is derived from it. Bridges are numbered along the chain shown (N, C = ends). The star is where a group is joined. Ethylenediamine = C(CN[*:2])N[*:1]; X1 = O=C(CC1(S[*:2])CCCCC1)[*:1]; X2 = CC(C)(CC(=O)[*:1])S[*:2]; NHBu = CCCCN*

How the values were obtained:
Vasopressin V1 receptor = Vasopressin V1 receptor (Rattus norvegicus, UniProt P48974+P30560); assay: In vivo vasopressin V1-antagonistic activity was determined by measuring the blood pressure response in rats.; assay type: functional, organism-based
Vasopressin V2 receptor = Vasopressin V2 receptor (Rattus norvegicus, UniProt Q00788); assay: In vivo antidiuretic V2-antagonistic activity was measured as changes in urine flow in water-loaded rats and is expressed as the negative logarithm of the ''effective dose divided by the estimated volume of distribution (67 mL/kg); assay type: functional, organism-based; settings: read-out: pA2 (converted)
[1] = target: Vasopressin V2 receptor (Rattus norvegicus) (UniProt Q00788); assay: Dose that reduces urine flow in water-loaded rats; assay type: functional
[2] = target: Vasopressin V1 receptor (Rattus norvegicus) (UniProt P48974+P30560); assay: Dose that reduces blood pressure response in rats; assay type: functional
[3] = Ratio of antidiuretic V2 effective dose to that of vasopressin V1 effective dose; assay type: functional, Urine

Chain of Vasopressin V1 receptor (Rattus norvegicus) (P30560 whole entry, looked up): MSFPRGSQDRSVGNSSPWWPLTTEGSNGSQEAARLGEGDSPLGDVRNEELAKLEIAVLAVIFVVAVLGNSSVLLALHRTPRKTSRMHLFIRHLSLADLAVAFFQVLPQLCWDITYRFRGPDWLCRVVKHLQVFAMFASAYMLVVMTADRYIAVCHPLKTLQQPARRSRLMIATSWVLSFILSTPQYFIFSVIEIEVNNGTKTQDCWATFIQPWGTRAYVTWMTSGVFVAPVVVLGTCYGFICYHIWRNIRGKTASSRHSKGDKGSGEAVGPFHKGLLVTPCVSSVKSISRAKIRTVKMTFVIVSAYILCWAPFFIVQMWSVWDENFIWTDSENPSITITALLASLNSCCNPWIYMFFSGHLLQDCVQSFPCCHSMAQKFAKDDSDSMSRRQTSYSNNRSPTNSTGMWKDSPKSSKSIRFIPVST
Chain of Vasopressin V1 receptor (Rattus norvegicus) (P48974 whole entry, looked up): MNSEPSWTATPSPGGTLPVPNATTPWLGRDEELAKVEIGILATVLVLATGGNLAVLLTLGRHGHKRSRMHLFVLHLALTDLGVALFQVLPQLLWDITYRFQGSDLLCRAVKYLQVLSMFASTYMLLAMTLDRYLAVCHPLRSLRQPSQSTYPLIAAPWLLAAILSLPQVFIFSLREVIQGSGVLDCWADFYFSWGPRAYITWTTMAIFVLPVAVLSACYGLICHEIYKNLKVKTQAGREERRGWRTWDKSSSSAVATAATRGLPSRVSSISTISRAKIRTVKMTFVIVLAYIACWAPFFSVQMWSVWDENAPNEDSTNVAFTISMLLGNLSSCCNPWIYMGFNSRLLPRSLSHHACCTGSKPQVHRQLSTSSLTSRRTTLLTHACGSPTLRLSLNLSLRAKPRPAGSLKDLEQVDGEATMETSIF
Chain of Vasopressin V2 receptor (Q00788 whole entry): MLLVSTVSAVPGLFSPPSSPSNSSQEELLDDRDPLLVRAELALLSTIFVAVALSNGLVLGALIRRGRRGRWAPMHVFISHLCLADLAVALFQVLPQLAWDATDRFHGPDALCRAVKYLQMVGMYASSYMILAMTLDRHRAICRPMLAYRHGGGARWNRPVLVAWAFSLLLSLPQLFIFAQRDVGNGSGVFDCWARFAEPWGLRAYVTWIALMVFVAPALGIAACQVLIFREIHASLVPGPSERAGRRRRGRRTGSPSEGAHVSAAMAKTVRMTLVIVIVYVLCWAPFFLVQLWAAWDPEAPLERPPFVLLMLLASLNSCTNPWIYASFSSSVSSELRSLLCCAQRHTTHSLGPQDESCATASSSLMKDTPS
Chain of Vasopressin V2 receptor (Rattus norvegicus) (Q00788 whole entry): as above

Kb (Vasopressin V2 receptor): ~631 nM
Structure (SMILES): COc1ccc(C[C@@H]2NC(=O)CC3(CCCCC3)SSC[C@@H](C(=O)N3CCC[C@H]3C(=O)N[C@@H](CCCN=C(N)N)C(=O)N[C@H](C(N)=O)[C@@H](C)O)NC(=O)[C@H](CC(N)=O)NC(=O)[C@H](CCC(N)=O)NC(=O)[C@H](Cc3ccccc3)NC2=O)cc1 (Y(Me)FQNCPRT-NH2; linker N-5 via X1) [listing 1 of 2 here]
pA2 (Vasopressin V1 receptor): 8.49

Structure (SMILES): CNC(=O)[C@H](CCCN=C(N)N)NC(=O)[C@@H]1CCCN1C(=O)[C@@H]1CSSC2(CCCCC2)CC(=O)N[C@@H](Cc2ccc(OC)cc2)C(=O)N[C@@H](Cc2ccccc2)C(=O)N[C@@H](CCC(N)=O)C(=O)N[C@@H](CC(N)=O)C(=O)N1 (Y(Me)FQNCPR-NHMe; linker N-5 via X1) [listing 1 of 2 here]
pA2 (Vasopressin V1 receptor): 8.73 | Kb (Vasopressin V2 receptor): ~1260 nM

Effective dose [1]: 77 nM/kg
Structure (SMILES): C[C@H](NC(=O)[C@H](CCCN=C(N)N)NC(=O)[C@@H]1CCCN1C(=O)[C@H]1CSSC2(CCCCC2)CC(=O)N(C)[C@@H](Cc2ccc(O)cc2)C(=O)N[C@H](Cc2ccccc2)C(=O)N[C@@H](CCC(N)=O)C(=O)N[C@H](CC(N)=O)C(=O)N1)C(N)=O
Effective dose [2]: 0.13 nM/kg

Kb (Vasopressin V2 receptor): ~1580 nM
Structure (SMILES): COc1ccc(C[C@@H]2NC(=O)CC3(CCCCC3)SSC[C@@H](C(=O)N3CCC[C@H]3C(=O)N[C@@H](CCCN=C(N)N)C(=O)N[C@H](C(N)=O)C(C)C)NC(=O)[C@H](CC(N)=O)NC(=O)[C@H](CCC(N)=O)NC(=O)[C@H](Cc3ccccc3)NC2=O)cc1 (Y(Me)FQNCPRV-NH2; linker N-5 via X1) [listing 1 of 2 here]
pA2 (Vasopressin V1 receptor): 8.57

Structure (SMILES): COc1ccc(C[C@@H]2NC(=O)CC3(CCCCC3)SSC[C@@H](C(=O)N3CCC[C@H]3C(=O)N[C@@H](CCCN=C(N)N)C(=O)NCC(=O)NCCN)NC(=O)[C@H](CC(N)=O)NC(=O)[C@H](CCC(N)=O)NC(=O)[C@H](Cc3ccccc3)NC2=O)cc1 (Y(Me)FQNCPRG-Ethylenediamine; linker N-5 via X1) [listing 1 of 2 here]
pA2 (Vasopressin V1 receptor): 8.39 | Kb (Vasopressin V2 receptor): ~251 nM

Structure (SMILES): COc1ccc(C[C@@H]2NC(=O)CC(C)(C)SSC[C@@H](C(=O)N3CCC[C@H]3C(=O)N[C@@H](CCCN=C(N)N)C(=O)N[C@@H](C)C(N)=O)NC(=O)[C@H](CC(N)=O)NC(=O)[C@H](CCC(N)=O)NC(=O)[C@H](Cc3ccccc3)NC2=O)cc1 (Y(Me)FQNCPRA-NH2; linker N-5 via X2)
pA2 (Vasopressin V1 receptor): 8.16

Structure (SMILES): COc1ccc(C[C@@H]2NC(=O)CC3(CCCCC3)SSC[C@@H](C(=O)N3CCC[C@H]3C(=O)N[C@@H](CCCN=C(N)N)C(=O)N[C@@H](C)C(N)=O)NC(=O)[C@H](CC(N)=O)NC(=O)[C@H](CCC(N)=O)NC(=O)[C@H](Cc3ccccc3)NC2=O)cc1 (Y(Me)FQNCPRA-NH2; linker N-5 via X1) [listing 1 of 2 here]
pA2 (Vasopressin V1 receptor): 8.75 | Kb (Vasopressin V2 receptor): ~1000 nM

Structure (SMILES): CCCCNC(=O)CNC(=O)[C@H](CCCN=C(N)N)NC(=O)[C@@H]1CCCN1C(=O)[C@@H]1CSSC2(CCCCC2)CC(=O)N[C@@H](Cc2ccc(OC)cc2)C(=O)N[C@@H](Cc2ccccc2)C(=O)N[C@@H](CCC(N)=O)C(=O)N[C@@H](CC(N)=O)C(=O)N1 (Y(Me)FQNCPRG-NHBu; linker N-5 via X1)
pA2 (Vasopressin V1 receptor): 8.44

Structure (SMILES): COc1ccc(C[C@@H]2NC(=O)CC3(CCCCC3)SSC[C@@H](C(=O)N3CCC[C@H]3C(=O)N[C@@H](CCCN=C(N)N)C(=O)N[C@@H](C)C(N)=O)NC(=O)[C@H](CC(N)=O)NC(=O)[C@H](CCC(N)=O)NC(=O)[C@H](Cc3ccccc3)NC2=O)cc1 (Y(Me)FQNCPRA-NH2; linker N-5 via X1) [listing 2 of 2 here]
Ratio [3]: ~590

Effective dose [1]: 16 nM/kg
Structure (SMILES): CN1C(=O)CC2(CCCCC2)SSC[C@H](C(=O)N2CCC[C@H]2C(=O)N[C@@H](CCCN=C(N)N)C(=O)NCC(=O)NCCN)NC(=O)[C@@H](CC(N)=O)NC(=O)[C@H](CCC(N)=O)NC(=O)[C@@H](Cc2ccccc2)NC(=O)[C@@H]1Cc1ccc(O)cc1
Effective dose [2]: 0.27 nM/kg

Kb (Vasopressin V2 receptor): ~1000 nM
Structure (SMILES): COc1ccc(C[C@@H]2NC(=O)CC3(CCCCC3)SSC[C@@H](C(=O)N3CCC[C@H]3C(=O)N[C@@H](CCCN=C(N)N)C(=O)N[C@@H](Cc3ccc(O)cc3)C(N)=O)NC(=O)[C@H](CC(N)=O)NC(=O)[C@H](CCC(N)=O)NC(=O)[C@H](Cc3ccccc3)NC2=O)cc1 (Y(Me)FQNCPRY-NH2; linker N-5 via X1) [listing 1 of 2 here]
pA2 (Vasopressin V1 receptor): 8.47

Structure (SMILES): COc1ccc(C[C@@H]2NC(=O)CC(C)(C)SSC[C@@H](C(=O)N3CCC[C@H]3C(=O)N[C@@H](CCCN=C(N)N)C(=O)N[C@H](C(N)=O)[C@@H](C)O)NC(=O)[C@H](CC(N)=O)NC(=O)[C@H](CCC(N)=O)NC(=O)[C@H](Cc3ccccc3)NC2=O)cc1 (Y(Me)FQNCPRT-NH2; linker N-5 via X2)
pA2 (Vasopressin V1 receptor): 8.04

Structure (SMILES): COc1ccc(C[C@@H]2NC(=O)CC3(CCCCC3)SSC[C@@H](C(=O)N3CCC[C@H]3C(=O)N[C@@H](CCCN=C(N)N)C(=O)N[C@H](C(N)=O)C(C)C)NC(=O)[C@H](CC(N)=O)NC(=O)[C@H](CCC(N)=O)NC(=O)[C@H](Cc3ccccc3)NC2=O)cc1 (Y(Me)FQNCPRV-NH2; linker N-5 via X1) [listing 2 of 2 here]
Ratio [3]: ~575

Effective dose [1]: 33 nM/kg
Structure (SMILES): CN1C(=O)CC2(CCCCC2)SSC[C@H](C(=O)N2CCC[C@H]2C(=O)N[C@@H](CCCN=C(N)N)C(=O)NCCN)NC(=O)[C@@H](CC(N)=O)NC(=O)[C@H](CCC(N)=O)NC(=O)[C@@H](Cc2ccccc2)NC(=O)[C@@H]1Cc1ccc(O)cc1
Effective dose [2]: 0.12 nM/kg

Structure (SMILES): COc1ccc(C[C@@H]2NC(=O)CC3(CCCCC3)SSC[C@@H](C(=O)N3CCC[C@H]3C(=O)N[C@@H](CCCN=C(N)N)C(=O)N[C@H](C(N)=O)[C@@H](C)O)NC(=O)[C@H](CC(N)=O)NC(=O)[C@H](CCC(N)=O)NC(=O)[C@H](Cc3ccccc3)NC2=O)cc1 (Y(Me)FQNCPRT-NH2; linker N-5 via X1) [listing 2 of 2 here]
Ratio [3]: ~205

Structure (SMILES): COc1ccc(C[C@@H]2NC(=O)CC3(CCCCC3)SSC[C@@H](C(=O)N3CCC[C@H]3C(=O)N[C@@H](CCCN=C(N)N)C(=O)NCCN)NC(=O)[C@H](CC(N)=O)NC(=O)[C@H](CCC(N)=O)NC(=O)[C@H](Cc3ccccc3)NC2=O)cc1 (Y(Me)FQNCPR-Ethylenediamine; linker N-5 via X1) [listing 1 of 2 here]
pA2 (Vasopressin V1 receptor): 8.75 | Kb (Vasopressin V2 receptor): ~501 nM

Structure (SMILES): COc1ccc(C[C@@H]2NC(=O)CC3(CCCCC3)SSC[C@@H](C(=O)N3CCC[C@H]3C(=O)N[C@@H](CCCN=C(N)N)C(=O)NCCN)NC(=O)[C@H](CC(N)=O)NC(=O)[C@H](CCC(N)=O)NC(=O)[C@H](Cc3ccccc3)NC2=O)cc1 (Y(Me)FQNCPR-Ethylenediamine; linker N-5 via X1) [listing 2 of 2 here]
Ratio [3]: ~275

Structure (SMILES): COc1ccc(C[C@@H]2NC(=O)CC(C)(C)SSC[C@@H](C(=O)N3CCC[C@H]3C(=O)N[C@@H](CCCN=C(N)N)C(=O)N[C@@H](CCCN=C(N)N)C(N)=O)NC(=O)[C@H](CC(N)=O)NC(=O)[C@H](CCC(N)=O)NC(=O)[C@H](Cc3ccccc3)NC2=O)cc1 (Y(Me)FQNCPRR-NH2; linker N-5 via X2)
pA2 (Vasopressin V1 receptor): 8.52

Effective dose [1]: 115 nM/kg
Structure (SMILES): CC(C)[C@H](NC(=O)[C@H](CCCN=C(N)N)NC(=O)[C@@H]1CCCN1C(=O)[C@H]1CSSC2(CCCCC2)CC(=O)N(C)[C@@H](Cc2ccc(O)cc2)C(=O)N[C@H](Cc2ccccc2)C(=O)N[C@@H](CCC(N)=O)C(=O)N[C@H](CC(N)=O)C(=O)N1)C(N)=O
Effective dose [2]: 0.2 nM/kg

Structure (SMILES): CNC(=O)[C@H](CCCN=C(N)N)NC(=O)[C@@H]1CCCN1C(=O)[C@@H]1CSSC2(CCCCC2)CC(=O)N[C@@H](Cc2ccc(OC)cc2)C(=O)N[C@@H](Cc2ccccc2)C(=O)N[C@@H](CCC(N)=O)C(=O)N[C@@H](CC(N)=O)C(=O)N1 (Y(Me)FQNCPR-NHMe; linker N-5 via X1) [listing 2 of 2 here]
Ratio [3]: ~700

Kb (Vasopressin V2 receptor): ~219 nM
Structure (SMILES): COc1ccc(C[C@@H]2NC(=O)CC3(CCCCC3)SSC[C@@H](C(=O)N3CCC[C@H]3C(=O)N[C@@H](CCCN=C(N)N)C(=O)N[C@@H](CCCN=C(N)N)C(N)=O)NC(=O)[C@H](CC(N)=O)NC(=O)[C@H](CCC(N)=O)NC(=O)[C@H](Cc3ccccc3)NC2=O)cc1 (Y(Me)FQNCPRR-NH2; linker N-5 via X1)
pA2 (Vasopressin V1 receptor): 8.78

Structure (SMILES): COc1ccc(C[C@@H]2NC(=O)CC3(CCCCC3)SSC[C@@H](C(=O)N3CCC[C@H]3C(=O)N[C@@H](CCCN=C(N)N)C(=O)NCC(=O)NCCN)NC(=O)[C@H](CC(N)=O)NC(=O)[C@H](CCC(N)=O)NC(=O)[C@H](Cc3ccccc3)NC2=O)cc1 (Y(Me)FQNCPRG-Ethylenediamine; linker N-5 via X1) [listing 2 of 2 here]
Ratio [3]: ~60

Structure (SMILES): COc1ccc(C[C@@H]2NC(=O)CC3(CCCCC3)SSC[C@@H](C(=O)N3CCC[C@H]3C(=O)N[C@@H](CCCN=C(N)N)C(=O)N[C@@H](Cc3ccc(O)cc3)C(N)=O)NC(=O)[C@H](CC(N)=O)NC(=O)[C@H](CCC(N)=O)NC(=O)[C@H](Cc3ccccc3)NC2=O)cc1 (Y(Me)FQNCPRY-NH2; linker N-5 via X1) [listing 2 of 2 here]
Ratio [3]: ~217

Structure (SMILES): COc1ccc(C[C@@H]2NC(=O)CC(C)(C)SSC[C@@H](C(=O)N3CCC[C@H]3C(=O)N[C@@H](CCCN=C(N)N)C(=O)N[C@H](C(N)=O)C(C)C)NC(=O)[C@H](CC(N)=O)NC(=O)[C@H](CCC(N)=O)NC(=O)[C@H](Cc3ccccc3)NC2=O)cc1 (Y(Me)FQNCPRV-NH2; linker N-5 via X2)
pA2 (Vasopressin V1 receptor): 8.05

Structure (SMILES): COc1ccc(C[C@@H]2NC(=O)CC(C)(C)SSC[C@@H](C(=O)N3CCC[C@H]3C(=O)N[C@@H](CCCN=C(N)N)C(=O)N[C@@H](Cc3ccc(O)cc3)C(N)=O)NC(=O)[C@H](CC(N)=O)NC(=O)[C@H](CCC(N)=O)NC(=O)[C@H](Cc3ccccc3)NC2=O)cc1 (Y(Me)FQNCPRY-NH2; linker N-5 via X2)
pA2 (Vasopressin V1 receptor): 8.25

Structure (SMILES): COc1ccc(C[C@@H]2NC(=O)CC3(CCCCC3)SSC[C@@H](C(=O)N3CCC[C@H]3C(=O)N[C@@H](CCCN=C(N)N)C(=O)NCC(N)=O)NC(=O)[C@H](CC(N)=O)NC(=O)[C@H](CCC(N)=O)NC(=O)[C@H](Cc3ccccc3)NC2=O)cc1 (Y(Me)FQNCPRG-NH2; linker N-5 via X1)
pA2 (Vasopressin V1 receptor): 8.62

Structure (SMILES): COc1ccc(C[C@@H]2NC(=O)CC(C)(C)SSC[C@@H](C(=O)N3CCC[C@H]3C(=O)N[C@@H](CCCN=C(N)N)C(=O)NCC(N)=O)NC(=O)[C@H](CC(N)=O)NC(=O)[C@H](CCC(N)=O)NC(=O)[C@H](Cc3ccccc3)NC2=O)cc1 [DP[TYR(ME)2]AVP] (Y(Me)FQNCPRG-NH2; linker N-5 via X2)
pA2 (Vasopressin V1 receptor): 7.96
